# Experiments:
# [1] = system: E. faecalis (72) clinical isolates; experiment: Susceptibility of clinical isolates (MIC); type: cell-based, Enterococcus faecalis
# Protocol: (§1) Susceptibility testing of oxazolidinone-fluoroquinolone hybrids against various bacteria was performed by the broth microdilution method as outlined by the Clinical and Laboratory Standards Institute (CLSI). Three types of media, including cation-adjusted Mueller Hinton broth, Haemophilus Test Medium and cation-adjusted Mueller Hinton broth that contained 3%–5% lysed horse blood, were used to culture the corresponding bacteria. […] A final inoculum of 5 × 10^5 CFU/mL was used and plates were read after incubation for 16–24 h at 35 °C. […] Standard quality control strains (ATCC) were included throughout. Each determination was repeated in triplicate.
# [2] = system: protein synthesis (E. coli extract-based cell-free protein expression system); experiment: In vitro transcription/translation assay (S30 T7 cell-free system, Renilla luciferase); type: biochemical; conditions: E. coli S30 T7 cell-free transcription/translation, 1 h, 37 °C; read-out: IC50 Inhib. of Protein Synthesis
# Protocol: The influence of hybrids OBP-4 and OBP-5 against protein synthesis was confirmed by the S30 T7 High-Yield Protein Expression System (Promega Co., Ltd.). The S30 T7 High-Yield Protein Expression System is an E. coli extract-based cell-free protein expression system, which can effectively transcribe and translate DNA fragments with a T7 promoter. The reaction system containing 1 μg plasmid DNA, 20 μL S30 Premix Plus and 18 μL T7 S30 Extract with or without compounds was incubated for 1 h at 37 °C with a rotational speed of 250 rpm, and terminated by cooling in ice for 5 min in a 96-well white multi-well plate. Then, 1.25 μL of the translation reaction mixture was added to 48.75 μL of Renilla Luciferase Assay Lysis Buffer, and mixed with 50 μL of Renilla Luciferase Assay Reagent (cat no. E2810; Promega). Renilla luciferase activity was measured on EnSpire® Multimode Plate Reader (PerkinElmer, Waltham, MA, USA). […] LZD was used as a positive control.
# [3] = system: S. pneumoniae (13) clinical isolates; experiment: Susceptibility of clinical isolates (MIC); type: cell-based, Streptococcus pneumoniae
# Protocol: as §1
# [4] = system: E. faecium (47) clinical isolates; experiment: Susceptibility of clinical isolates (MIC); type: cell-based, Enterococcus faecium
# Protocol: as §1
# [5] = system: S. aureus (46) clinical isolates; experiment: Susceptibility of clinical isolates (MIC); type: cell-based, Staphylococcus aureus
# Protocol: as §1
# [6] = system: H. parasuis (34) clinical isolates; experiment: Susceptibility of clinical isolates (MIC); type: cell-based, Haemophilus parasuis; conditions: Glaesserella parasuis, H. parasuis, 34 clinical isolates
# Protocol: as §1
# [7] = system: S. epidermidis (10) clinical isolates; experiment: Susceptibility of clinical isolates (MIC); type: cell-based, Staphylococcus epidermidis
# Protocol: as §1
# [8] = system: LZD-resistant E. faecalis; experiment: microbe, parasite or virus in culture; type: cell-based; conditions: Enterococcus faecalis
# Protocol: (§2) 6 standard strains and 3 clinical isolates were used to the preliminary evaluation of in vitro antibacterial activities of oxazolidinone-fluoroquinolone hybrids.
# as §1
# [9] = system: MRSE; experiment: MIC against drug-resistant strain; type: cell-based, S. epidermidis; conditions: Staphylococcus epidermidis, read-out: MIC
# Protocol: as §2, §1
# [10] = system: S. suis (9) clinical isolates; experiment: Susceptibility of clinical isolates (MIC); type: cell-based, Streptococcus suis; conditions: Streptococcus suis, S. suis, 9 clinical isolates
# Protocol: as §1
# [11] = system: S. agalactiae^R (13B317), levofloxacin-resistant S. agalactiae; experiment: MIC, broth microdilution (CLSI), clinical isolate; type: cell-based; conditions: Streptococcus agalactiae; levofloxacin-resistant S. agalactiae (13B317)
# Text: 6 standard strains and 3 clinical isolates were used to the preliminary evaluation of in vitro antibacterial activities of oxazolidinone-fluoroquinolone hybrids. For the further evaluation of hybrids OBP-4 and OBP-5, 263 clinical isolates including S. aureus (46), S. haemolyticus(32), S. epidermidis (10), E. faecalis (72), E. faecium (47), S. pneumoniae (13), H. parasuis (34), S. suis (9), and 8 resistant strains including MRSA, MRSE, CIP-resistant S. aureus and S. haemolyticus, VAN and quinolone-resistant S. pneumoniae, LZD-resistant E. faecalis, LZD/VAN and quinolone-resistant E. faecium were collected and tested.
# Susceptibility testing of oxazolidinone-fluoroquinolone hybrids against various bacteria was performed by the broth microdilution method as outlined by the Clinical and Laboratory Standards Institute (CLSI). Three types of media, including cation-adjusted Mueller Hinton broth, Haemophilus Test Medium and cation-adjusted Mueller Hinton broth that contained 3%–5% lysed horse blood, were used to culture the corresponding bacteria. All compounds including comparator drugs were dissolved in an appropriate solvent at a concentration of 2.048 mg/mL and then serially diluted two-fold to provide the required concentrations. A final inoculum of 5 × 10^5 CFU/mL was used and plates were read after incubation for 16–24 h at 35 °C. […] Standard quality control strains (ATCC) were included throughout. Each determination was repeated in triplicate.
# [12] = E. faecalis clinical isolates, CLSI criteria
# [13] = Enterococcus faecalis, E. faecalis, 72 clinical isolates
# [14] = E. faecium clinical isolates, CLSI criteria
smiles,measurement,setting,value
"CC(=O)NC[C@H]1CN(c2ccc(N3CCOCC3)c(F)c2)C(=O)O1 [LZD, linezolid, reference compound]",CLSI %R (resistant),[1]; [12],2.7%
same,CLSI %S (susceptible),[1]; [12],97.3%
same,MIC Range,"[1]; E. faecalis, 72 clinical isolates",0.5 to 8 µg/mL
same,MIC50,[1]; [13],2 µg/mL
same,MIC90,[1]; [13],2 µg/mL
same,IC50,[2],5 µM
same,CLSI %S (susceptible),"[3]; S. pneumoniae clinical isolates, CLSI criteria",76.9/- %
same,MIC Range,"[3]; S. pneumoniae, 13 clinical isolates",0.5 to 4 µg/mL
same,MIC50,"[3]; Streptococcus pneumoniae, S. pneumoniae, 13 clinical isolates, read-out: MIC50",0.5 µg/mL
same,MIC90,"[3]; Streptococcus pneumoniae, S. pneumoniae, 13 clinical isolates, read-out: MIC90",0.5 µg/mL
same,CLSI %R (resistant),[4]; [14],13.8%
same,CLSI %S (susceptible),[4]; [14],82.8%
same,MIC Range,"[4]; E. faecium, 47 clinical isolates",0.5 to 16 µg/mL
same,MIC50,"[4]; Enterococcus faecium, E. faecium, 47 clinical isolates, read-out: MIC50",2 µg/mL
same,MIC90,"[4]; Enterococcus faecium, E. faecium, 47 clinical isolates, read-out: MIC90",4 µg/mL
same,CLSI %S (susceptible),"[5]; S. aureus clinical isolates, CLSI criteria",100.0/- %
same,MIC50,"[5]; Staphylococcus aureus, S. aureus, 46 clinical isolates, read-out: MIC50",2 µg/mL
same,MIC90,"[5]; Staphylococcus aureus, S. aureus, 46 clinical isolates, read-out: MIC90",2 µg/mL
same,MIC,"[5]; Staphylococcus aureus, S. aureus, 46 clinical isolates, read-out: MIC Range",0.5 to 2 µg/mL
same,MIC50,[6]; read-out: MIC50,16 µg/mL
same,MIC90,[6]; read-out: MIC90,> 32 µg/mL
same,CLSI %S (susceptible),"[7]; S. epidermidis clinical isolates, CLSI criteria",100.0/- %
same,MIC50,"[7]; Staphylococcus epidermidis, S. epidermidis, 10 clinical isolates, read-out: MIC50",1 µg/mL
same,MIC90,"[7]; Staphylococcus epidermidis, S. epidermidis, 10 clinical isolates, read-out: MIC90",1 µg/mL
same,MIC,"[7]; Staphylococcus epidermidis, S. epidermidis, 10 clinical isolates, read-out: MIC Range",0.5 to 1 µg/mL
same,MIC,[8],8 µg/mL
same,MIC,[9],0.25 µg/mL
same,MIC50,[10]; read-out: MIC50,0.5 µg/mL
same,MIC90,[10]; read-out: MIC90,4 µg/mL
same,MIC,[10]; read-out: MIC Range,0.5 to 4 µg/mL
same,MIC,[11],1 µg/mL

# Reference: PMC6514978, “Synthesis, Antibacterial Activities, Mode of Action and Acute Toxicity Studies of New Oxazolidinone-Fluoroquinolone Hybrids” (Molecules, 2019)
